Reference: patent EP2970215B1, “PYRROLIDINE DERIVATIVES, PHARMACEUTICAL COMPOSITIONS CONTAINING THEM, AND THEIR USE IN THERAPY” (AbbVie Deutschland GmbH & Co. KG, priority 2013, dated 2014)

What follows are molecules tested against T1, human GlyT1c transporter (Homo sapiens, UniProt P48067) (assay: Radioligand binding assay using recombinant CHO cell membranes expressing human GlyT1). Details: radioligand binding to human GlyT1c transporter-expressing membranes.
T1 construct: expressed in transfected cells; host or cells: CHO cells (recombinant; line hGlyT1c_5_CHO is named for the uptake assay)
T1 sequence (P48067 1-706): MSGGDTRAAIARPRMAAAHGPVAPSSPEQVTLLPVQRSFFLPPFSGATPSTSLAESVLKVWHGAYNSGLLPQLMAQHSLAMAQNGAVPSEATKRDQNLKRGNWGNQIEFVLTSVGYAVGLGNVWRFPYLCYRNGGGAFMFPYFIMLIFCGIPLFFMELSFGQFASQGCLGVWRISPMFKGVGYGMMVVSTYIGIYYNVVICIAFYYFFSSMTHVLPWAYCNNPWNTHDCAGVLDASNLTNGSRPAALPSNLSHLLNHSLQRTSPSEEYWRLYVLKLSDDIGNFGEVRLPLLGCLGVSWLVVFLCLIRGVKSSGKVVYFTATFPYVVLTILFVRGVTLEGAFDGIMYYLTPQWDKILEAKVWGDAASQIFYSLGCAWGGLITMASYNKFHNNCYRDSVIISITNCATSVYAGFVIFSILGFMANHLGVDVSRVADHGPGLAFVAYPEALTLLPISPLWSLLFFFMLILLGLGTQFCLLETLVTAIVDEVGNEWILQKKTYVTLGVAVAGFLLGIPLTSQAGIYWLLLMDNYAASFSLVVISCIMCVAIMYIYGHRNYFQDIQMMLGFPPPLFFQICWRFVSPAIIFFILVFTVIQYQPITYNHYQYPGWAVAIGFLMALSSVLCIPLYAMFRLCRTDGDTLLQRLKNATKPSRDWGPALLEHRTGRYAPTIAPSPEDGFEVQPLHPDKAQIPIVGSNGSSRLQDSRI
Source text: 2. Radioligand binding assays using recombinant CHO cell membranes expressing human GlyT1: […]
Work on `Cc1ncc(S(=O)(=O)N2C[C@H](Nc3ccc(F)c(C(F)(F)F)c3)[C@@H](c3ccc(F)cc3)C2)n1C` [Example 758, (3R,4S)-1-[(1,2-dimethyl-1H-imidazol-5-yl)sulfonyl]-4-(4-fluorophenyl)-N-[4-fluoro-3-(trifluoromethyl)phenyl]pyrrolidin-3-amine] yielded a Ki of no more than 10000 nM. Work on `Cn1cnc(S(=O)(=O)N2C[C@@H](Nc3ccc(C#N)cc3F)[C@H](c3ccccc3)C2)c1` (relative stereo) [Example 53, 3-fluoro-4-({trans-1-[(1-methyl-1H-imidazol-4-yl)sulfonyl]-4-phenylpyrrolidin-3-yl}amino)benzonitrile] yielded a Ki of no more than 10000 nM. Work on `Cn1cnc(S(=O)(=O)N2C[C@H](Nc3cc(Cl)c(Cl)cn3)[C@@H](c3ccc(F)cc3)C2)c1` [Example 706, 4,5-dichloro-N-{(3R,4S)-4-(4-fluorophenyl)-1-[(1-methyl-1H-imidazol-4-yl)sulfonyl]pyrrolidin-3-yl}pyridin-2-amine] yielded a Ki of no more than 10000 nM. Work on `COc1cccc(C(=O)N[C@@H]2CN(S(=O)(=O)c3cn(C)cn3)C[C@H]2c2ccccc2)c1` (relative stereo) [Example 21, 3-methoxy-N-{trans-1-[(1-methyl-1H-imidazol-4-yl)sulfonyl]-4-phenylpyrrolidin-3-yl}benzamide] yielded a Ki of no more than 10000 nM. Work on `O=c1[nH]c2ccc(S(=O)(=O)N3CC(Nc4ccc(F)c(F)c4)C(c4ccccc4)C3)cc2[nH]c1=O` (centres unmarked) [Example 501, 6-({3-[(3,4-difluorophenyl)amino]-4-phenylpyrrolidin-1-yl}sulfonyl)-1,4-dihydroquinoxaline-2,3-dione] yielded a Ki of no more than 10000 nM. `Cn1cnc(S(=O)(=O)N2C[C@@H](Nc3cccc(C(F)(F)F)c3)[C@H](C3CC3)C2)c1` (relative stereo) [Example 337, Trans-4-cyclopropyl-1-[(1-methyl-1H-imidazol-4-yl)sulfonyl]-N-[3-(trifluoromethyl)phenyl]pyrrolidin-3-amine] was tested, and the Ki was no more than 1000 nM. `Cc1oc2ccccc2c1CN[C@H]1CN(S(=O)(=O)c2cn(C)cn2)C[C@@H]1c1ccccc1` [Example 443, (3R,4S)-N-[(2-methyl-1-benzofuran-3-yl)methyl]-1-[(1-methyl-1H-imidazol-4-yl)sulfonyl]-4-phenylpyrrolidin-3-amine] was tested, and the Ki was no more than 1000 nM. Molecule `CCS(=O)(=O)N1C[C@@H](NC(=O)c2cccc(C(F)(F)F)c2Cl)[C@H](c2ccccc2)C1` (relative stereo) [Example 124, 2-chloro-N-[trans-1-(ethylsulfonyl)-4-phenylpyrrolidin-3-yl]-3-(trifluoromethyl)benzamide] has a Ki of no more than 10000 nM. `Cn1cnc(S(=O)(=O)N2C[C@H](NCc3cc(Cl)sc3Cl)[C@@H](c3ccccc3)C2)c1` [Example 570, (3R,4S)-N-[(2,5-dichlorothiophen-3-yl)methyl]-1-[(1-methyl-1H-imidazol-4-yl)sulfonyl]-4-phenylpyrrolidin-3-amine] gave a Ki of no more than 10 nM. Work on `Cc1nc(S(=O)(=O)N2C[C@H](Nc3ccc(F)c(C(F)(F)F)c3)[C@@H](c3ccc(F)cc3)C2)cn1C` [Example 756, (3R,4S)-1-[(1,2-dimethyl-1H-imidazol-4-yl)sulfonyl]-4-(4-fluorophenyl)-N-[4-fluoro-3-(trifluoromethyl)phenyl]pyrrolidin-3-amine] yielded a Ki of no more than 10000 nM. For `CCC(C)C(C)CN[C@H]1CN(S(=O)(=O)c2cn(C)cn2)C[C@@H]1c1ccccc1` (stereo partly drawn) [Example 561, (3R,4S)-N-(2,3-dimethylpentyl)-1-[(1-methyl-1H-imidazol-4-yl)sulfonyl]-4-phenylpyrrolidin-3-amine], the Ki was no more than 1000 nM. `Cn1cnc(S(=O)(=O)N2C[C@@H](NC(=O)c3cccc(C(F)(F)F)c3Cl)[C@H](c3cccc(Cl)c3)C2)c1` (relative stereo) [Example 56, 2-chloro-N-{trans-4-(3-chlorophenyl)-1-[(1-methyl-1H-imidazol-4-yl)sulfonyl]pyrrolidin-3-yl}-3-(trifluoromethyl)benzamide] showed a Ki of no more than 1000 nM. In the case of `Cn1cnc(S(=O)(=O)N2C[C@H](Nc3ccc4c(c3)CCC4)[C@@H](c3ccccc3)C2)c1` [Example 655, (3R,4S)-N-(2,3-dihydro-1H-inden-5-yl)-1-[(1-methyl-1H-imidazol-4-yl)sulfonyl]-4-phenylpyrrolidin-3-amine], the Ki is reported as no more than 1000 nM. `Cn1cnc(S(=O)(=O)N2C[C@@H](Nc3ccc(Cl)c(C(F)(F)F)c3)[C@H](c3ccccc3)C2)c1` (relative stereo) [Example 217, trans-N-[4-chloro-3-(trifluoromethyl)phenyl]-1-[(1-methyl-1H-imidazol-4-yl)sulfonyl]-4-phenylpyrrolidin-3-amine] showed a Ki of no more than 1000 nM. `Cn1cnc(S(=O)(=O)N2C[C@@H](Nc3cncc(C(F)(F)F)c3)[C@H](c3ccccc3)C2)c1` (relative stereo) [Example 213, N-{trans-1-[(1-methyl-1H-imidazol-4-yl)sulfonyl]-4-phenylpyrrolidin-3-yl} -5 - (trifluoromethyl)pyridin-3-amine] gave a Ki of no more than 1000 nM. `CC(CN[C@H]1CN(S(=O)(=O)c2cn(C)cn2)C[C@@H]1c1ccccc1)c1ccccc1` (stereo partly drawn) [Example 465, (3R,4S)-1-[(1-methyl-1H-imidazol-4-yl)sulfonyl]-4-phenyl-N-(2-phenylpropyl)pyrrolidin-3-amine] showed a Ki of no more than 1000 nM. `Cn1ccc(S(=O)(=O)N2C[C@@H](NC(=O)c3cccc(C(F)(F)F)c3Cl)[C@H](c3ccccc3)C2)n1` (relative stereo) [Example 49, 2-chloro-N-{trans-1-[(1-methyl-1H-pyrazol-3-yl)sulfonyl]-4-phenylpyrrolidin-3-yl}-3-(trifluoromethyl)benzamide] was tested, and the Ki was no more than 10000 nM. In the case of `Cn1cnc(S(=O)(=O)N2C[C@H](Nc3ccc(C(F)(F)F)c(C(F)(F)F)c3)[C@@H](c3ccccc3)C2)c1` [Example 656, (3R,4S)-N-[3,4-bis(trifluoromethyl)phenyl]-1-[(1-methyl-1H-imidazol-4-yl)sulfonyl]-4-phenylpyrrolidin-3-amine], the Ki is reported as no more than 1000 nM. `Cn1cnc(S(=O)(=O)N2CC(NCc3ccc(C(F)(F)F)cc3)C(O)(c3ccccc3)C2)c1` (centres unmarked) [Example 539, 1-[(1-methyl-1H-imidazol-4-yl)sulfonyl]-3-phenyl-4-{[4-(trifluoromethyl)benzyl]amino}pyrrolidin-3-ol] showed a Ki of no more than 10000 nM. `Cn1cnc(S(=O)(=O)N2C[C@@H](NCc3ccc(Cl)cc3Cl)[C@H](c3ccccc3Cl)C2)c1` (relative stereo) [Example 284, trans-4-(2-chlorophenyl)-N-(2,4-dichlorobenzyl)-1-[(1-methyl-1H-imidazol-4-yl)sulfonyl]pyrrolidin-3-amine] showed a Ki of no more than 100 nM. In the case of `Cn1cnc(S(=O)(=O)N2C[C@H](NCc3cc4cc(F)ccc4s3)[C@@H](c3ccccc3)C2)c1` [Example 568, (3R,4S)-N-[(5-fluoro-1-benzothiophen-2-yl)methyl]-1-[(1-methyl-1H-imidazol-4-yl)sulfonyl]-4-phenylpyrrolidin-3-amine], the Ki is reported as no more than 100 nM. `CCCCCCN[C@@H]1CN(S(=O)(=O)c2cn(C)cn2)C[C@H]1c1ncccc1F` (relative stereo) [Example 762, Trans-4-(3-fluoropyridin-2-yl)-N-hexyl-1-[(1-methyl-1H-imidazol-4-yl)sulfonyl]pyrrolidin-3-amine] was tested, and the Ki was no more than 100 nM.

Same assay, conditions: radioligand binding, recombinant CHO cell membranes expressing human GlyT1c
`Cn1cc(S(=O)(=O)N2C[C@H](Nc3cccc(OC(F)(F)F)c3)[C@@H](c3ccc(F)cc3)C2)nn1` [Example 837, (3R,4S)-4-(4-fluorophenyl)-1-[(1-methyl-1H-1,2,3-triazol-4-yl)sulfonyl]-N-[3-(trifluoromethoxy)phenyl]pyrrolidin-3-amine] gave a Ki of no more than 10 nM.
